Data published in US20250275954A1, “USE OF KYNURENIC ACID RESISTING HYPERURICEMIA AND STRUCTURAL ANALOG THEREOF IN PREPARATION OF XOD INHIBITOR” (JIMEI UNIVERSITY, priority 2023, published 2025).
“Also recorded” adds a separate entry of the source.

Columns and labels:
XOD (xanthine oxidase) = XOD (xanthine oxidase) (Homo sapiens, UniProt P47989); assay: In vitro XOD enzyme activity inhibition (xanthine substrate, uric acid measured at 290 nm); format: biochemical; conditions: for inhibition at 1000 µM: compound concentration 1 mM (FIG. 11), read-out: xanthine oxidase inhibitory activity at 1 mM; for IC50: in vitro, inhibitor co-reacted with XOD 10 min, xanthine substrate, 290 nm, read-out: XOI IC50 (XOD inhibitory activity)
Experimental: The inhibitory effect of quinoline structural analogs on XOD was evaluated by co-reacting an inhibitor with XOD for 10 min, adding a certain concentration of a reaction substrate xanthine, and measuring the amount of uric acid produced at 290 nm.

XOD [1] = molecular target: T1, XOD (Mus musculus, UniProt Q00519); assay: Hepatic XOD enzyme activity in hyperuricemic mice; format: in vivo, Kunming mice; conditions: liver homogenate, day 21, vs model group (p<0.01); KA 7, 35, 70 mM/kg/day
T1 construct: from tissue; host or cells: liver homogenate of male Kunming mice (hyperuricemia model)
Excerpt: (§1) 36 SPF-grade male Kunming mice with relatively consistent posture and good health were randomly divided into a normal control group, a model group, a positive control group, a kynurenic acid low dose group (KA-L), a kynurenic acid medium dose group (KA-M) and a kynurenic acid high dose group (KA-H), with six experimental mice in each group. The normal control group received daily gavage of an equal amount of CMC-Na solution and injection of an equal amount of saline, and the remaining groups received daily gavage of 500 mg/kg hypoxanthine (HX) and intraperitoneal injection of 300 mg/kg potassium oxazinate (PO). […] Oral gavage was continued for 21 days. Data were analyzed for correlation and significance by using SPSS 23.0 software, and differences between the groups were compared by using one-way ANOVA, *p<0.05 indicates a significant difference, **p<0.01 indicates a very significant difference, and the data were expressed as X±SD.
Serum samples of Example 2 were taken, and the XOD enzyme activity levels in the mouse serum samples were determined by using a xanthine oxidase (XOD) assay kit (a colorimetric method), and experimental operations and data calculation were performed in strict accordance with the kit instructions. […]

hyperuricemic mice [2] = assay: Hepatic uric acid in hyperuricemic mice; format: in vivo, Kunming mice; conditions: liver homogenate, day 21 (p<0.01); KA 7, 35, 70 mM/kg/day; allopurinol 35 mM/kg/day
Excerpt: as §1
Serum uric acid levels in target mice were detected by using a uric acid (UA) test kit. […]
On day 21, the mice in each group of Example 1 were quickly sacrificed by cervical dislocation after being fasted for solids and liquids for 12 h and livers were collected for weighing and subpackaging. […] Uric acid levels in the mouse liver homogenate samples were determined by using the method described in Example 2. […]

XOD [3] = molecular target: T1, XOD; assay: Serum XOD enzyme activity in hyperuricemic mice (colorimetric kit); format: in vivo, Kunming mice; conditions: day 21, vs model group (p<0.01), KA 7, 35, 70 mM/kg/day, allopurinol 35 mM/kg/day
Experimental: (§2) The normal control group received daily gavage of an equal amount of CMC-Na solution and injection of an equal amount of saline, and the remaining groups received daily gavage of 500 mg/kg hypoxanthine (HX) and intraperitoneal injection of 300 mg/kg potassium oxazinate (PO). […] Oral gavage was continued for 21 days. Data were analyzed for correlation and significance by using SPSS 23.0 software, and differences between the groups were compared by using one-way ANOVA, *p<0.05 indicates a significant difference, **p<0.01 indicates a very significant difference, and the data were expressed as X±SD.
After sufficient blood samples were collected, they were allowed to stand at room temperature for 30 min and then centrifuged (3500 rpm, 10 min). A supernatant was taken and stored at −20° C. for standby application.

hyperuricemic mice [4] = assay: Serum creatinine (CRE) in hyperuricemic mice; format: in vivo, Kunming mice; conditions: day 21, vs model group (p<0.01), KA 7, 35, 70 mM/kg/day
Excerpt: as §1, with “X±SD. […]” for “X±SD.”
Serum samples of Example 2 were taken and the CRE content of the mouse serum samples was measured by using a creatinine (CRE) assay kit (sarcosine oxidation), and experimental operations and data calculation were performed in strict accordance with the kit instructions.

hyperuricemic mice [5] = assay: Blood urea nitrogen (BUN) in hyperuricemic mice; format: in vivo, Kunming mice
Excerpt: as §1, with “X±SD. […]” for “X±SD.”
Serum samples of Example 2 were taken and the blood urea nitrogen (BUN) content in the mouse serum samples was measured by using a blood urea nitrogen (BUN) assay kit (a urease method), and experimental operations and data calculation were performed in strict accordance with the kit instructions.

hyperuricemic mice [6] = assay: Serum uric acid in hyperuricemic mice (UA test kit); format: in vivo, Kunming mice; conditions: for serum uric acid level: hyperuricemic mice, day 21, vs model group (p<0.01), KA 7, 35, 70 mM/kg/day, allopurinol 35 mM/kg/day, gavage
Experimental: as §2
At the end of the experiment on day 21, the mice in each group of Example 1 were subjected to blood collection from eyeballs of living bodies after being fasted for solids and liquids for 12 h. After sufficient blood samples were collected, they were allowed to stand at room temperature for 30 min and then centrifuged (3500 rpm, 10 min). A supernatant was taken and stored at −20° C. for standby application.
Serum uric acid levels in target mice were detected by using a uric acid (UA) test kit. The serum uric acid level is an important evaluation index of drug improvement in hyperuricemia.

[7] = tested on: adenosine deaminase (ADA); assay: Serum adenosine deaminase activity (ADA) in hyperuricemic mice (peroxidase method kit); format: in vivo, Kunming mice
Excerpt: as §1
At the end of the experiment on day 21, the mice in each group of Example 1 were subjected to blood collection from eyeballs of living bodies after being fasted for solids and liquids for 12 h. […]
Serum samples of Example 2 were taken, and ADA enzyme activity levels in the mouse serum samples were determined by using an adenosine deaminase activity (ADA) assay kit (a peroxidase method).

[8] = Body weight of hyperuricemic mice; format: in vivo, Kunming mice; conditions: hyperuricemic mice (HX + PO), daily gavage KA 7, 35 or 70 mM/kg, 21 days
Experimental: SPF-grade male Kunming mice (8 weeks old), 35±5 g, were purchased from Changzhou Cavens Laboratory Animal Co., Ltd. Animal quality was tested by Suzhou Xishan Biotechnology Co., Ltd.
Experimental mice were housed in a clean animal feeding room, and feeding and experimental operations were performed according to the standards of the Animal Experimental Center, and the animal feeding room and an operating workbench were cleaned and disinfected daily. All experimental mice were housed in a comfortable environment (temperature: 25±2° C., humidity: 40%-70%, 12 hours of day and night cycle) with good ventilation and daily supplementation of feed and drinking water.
36 SPF-grade male Kunming mice with relatively consistent posture and good health were randomly divided into a normal control group, a model group, a positive control group, a kynurenic acid low dose group (KA-L), a kynurenic acid medium dose group (KA-M) and a kynurenic acid high dose group (KA-H), with six experimental mice in each group. […] Data were analyzed for correlation and significance by using SPSS 23.0 software, and differences between the groups were compared by using one-way ANOVA, *p<0.05 indicates a significant difference, **p<0.01 indicates a very significant difference, and the data were expressed as X±SD. […]

[9] = hyperuricemic mice, day 21, vs model group (p<0.01), KA 7, 35, 70 mM/kg/day

Sequence of XOD (xanthine oxidase) (P47989 whole entry, species assumed): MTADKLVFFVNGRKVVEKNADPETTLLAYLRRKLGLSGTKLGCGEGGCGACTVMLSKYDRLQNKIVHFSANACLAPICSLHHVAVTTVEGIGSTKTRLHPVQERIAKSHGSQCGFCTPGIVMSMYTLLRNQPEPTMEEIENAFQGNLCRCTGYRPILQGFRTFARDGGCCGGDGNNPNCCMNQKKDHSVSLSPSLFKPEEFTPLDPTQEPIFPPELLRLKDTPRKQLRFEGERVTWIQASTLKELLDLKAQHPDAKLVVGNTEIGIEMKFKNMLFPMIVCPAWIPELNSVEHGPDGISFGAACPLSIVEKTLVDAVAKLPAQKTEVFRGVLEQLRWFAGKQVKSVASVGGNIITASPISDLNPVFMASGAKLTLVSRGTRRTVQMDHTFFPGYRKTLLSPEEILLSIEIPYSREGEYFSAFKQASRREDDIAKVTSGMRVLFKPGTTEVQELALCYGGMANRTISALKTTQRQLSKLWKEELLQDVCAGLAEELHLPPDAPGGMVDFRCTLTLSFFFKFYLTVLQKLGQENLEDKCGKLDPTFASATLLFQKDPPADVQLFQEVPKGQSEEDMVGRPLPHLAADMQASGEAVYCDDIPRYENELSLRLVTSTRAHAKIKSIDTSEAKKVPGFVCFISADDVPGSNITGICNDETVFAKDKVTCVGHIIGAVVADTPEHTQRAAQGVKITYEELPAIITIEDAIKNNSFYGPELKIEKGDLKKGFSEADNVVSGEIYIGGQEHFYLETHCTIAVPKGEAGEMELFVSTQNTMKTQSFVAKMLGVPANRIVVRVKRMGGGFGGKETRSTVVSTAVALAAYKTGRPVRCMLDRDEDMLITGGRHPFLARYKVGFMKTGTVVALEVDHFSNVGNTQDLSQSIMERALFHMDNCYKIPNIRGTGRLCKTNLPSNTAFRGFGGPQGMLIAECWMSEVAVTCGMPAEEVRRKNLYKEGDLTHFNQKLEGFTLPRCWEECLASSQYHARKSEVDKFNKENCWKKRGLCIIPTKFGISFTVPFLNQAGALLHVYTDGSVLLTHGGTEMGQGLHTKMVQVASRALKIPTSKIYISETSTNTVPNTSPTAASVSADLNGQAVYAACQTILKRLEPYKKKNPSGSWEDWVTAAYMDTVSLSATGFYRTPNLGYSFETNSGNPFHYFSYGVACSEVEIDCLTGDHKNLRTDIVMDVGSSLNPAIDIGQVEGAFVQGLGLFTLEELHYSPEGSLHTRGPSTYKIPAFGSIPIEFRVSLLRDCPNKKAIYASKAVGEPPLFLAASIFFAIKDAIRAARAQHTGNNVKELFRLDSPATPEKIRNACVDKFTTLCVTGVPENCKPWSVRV
T1 sequence (Q00519 whole entry): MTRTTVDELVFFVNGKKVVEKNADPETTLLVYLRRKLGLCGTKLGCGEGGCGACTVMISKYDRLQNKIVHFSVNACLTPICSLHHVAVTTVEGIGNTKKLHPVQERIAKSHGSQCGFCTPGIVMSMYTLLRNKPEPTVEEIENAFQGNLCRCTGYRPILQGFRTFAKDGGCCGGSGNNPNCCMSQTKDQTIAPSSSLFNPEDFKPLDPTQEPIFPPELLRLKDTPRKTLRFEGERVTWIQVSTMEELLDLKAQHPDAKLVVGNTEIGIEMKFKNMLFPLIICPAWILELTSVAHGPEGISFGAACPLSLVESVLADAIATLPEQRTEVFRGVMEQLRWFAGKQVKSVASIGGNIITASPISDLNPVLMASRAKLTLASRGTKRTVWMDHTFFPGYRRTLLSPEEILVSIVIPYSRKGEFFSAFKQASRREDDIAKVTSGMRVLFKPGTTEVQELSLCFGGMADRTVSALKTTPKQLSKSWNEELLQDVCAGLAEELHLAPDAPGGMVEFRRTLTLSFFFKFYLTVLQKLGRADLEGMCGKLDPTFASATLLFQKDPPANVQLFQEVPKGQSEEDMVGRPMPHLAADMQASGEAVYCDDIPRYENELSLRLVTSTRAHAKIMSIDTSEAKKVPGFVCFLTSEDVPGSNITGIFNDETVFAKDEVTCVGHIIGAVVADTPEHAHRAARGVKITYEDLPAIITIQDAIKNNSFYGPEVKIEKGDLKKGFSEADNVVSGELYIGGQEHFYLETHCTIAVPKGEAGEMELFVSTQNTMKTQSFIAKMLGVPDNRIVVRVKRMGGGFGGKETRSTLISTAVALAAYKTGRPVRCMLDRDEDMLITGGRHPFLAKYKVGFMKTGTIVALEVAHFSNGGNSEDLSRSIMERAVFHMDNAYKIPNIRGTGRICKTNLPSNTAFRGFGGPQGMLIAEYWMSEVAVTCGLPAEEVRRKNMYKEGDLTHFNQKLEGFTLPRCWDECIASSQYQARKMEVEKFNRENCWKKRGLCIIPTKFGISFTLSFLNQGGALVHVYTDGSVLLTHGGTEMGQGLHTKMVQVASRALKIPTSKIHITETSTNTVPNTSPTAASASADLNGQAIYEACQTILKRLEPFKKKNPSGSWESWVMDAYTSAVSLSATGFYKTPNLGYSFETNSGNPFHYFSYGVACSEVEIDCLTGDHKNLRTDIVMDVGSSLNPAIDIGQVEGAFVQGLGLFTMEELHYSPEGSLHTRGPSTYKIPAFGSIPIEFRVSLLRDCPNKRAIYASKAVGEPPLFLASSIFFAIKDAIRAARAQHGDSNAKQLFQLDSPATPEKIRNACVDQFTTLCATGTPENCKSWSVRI

SMILES	inhibition at 1000 µM (XOD (xanthine oxidase)) [%]	IC50 (XOD (xanthine oxidase)) [µM]	hepatic uric acid level (hyperuricemic mice [2])	serum uric acid level (hyperuricemic mice [6])	further results
O=C(O)c1nc2ccccc2cc1O [Compound 13, 3-Hydroxyquinoline-2-carboxylic acid]	> 50	970 ± 50	–	–	–
O=C(O)c1cc(O)nc2ccccc12 [Compound 11, 2-Hydroxyquinoline-4-carboxylic acid]	–	1610 ± 70	–	–	–
Oc1ncnc2[nH]ncc12 [allopurinol, reference compound]	–	–	significantly reduced	significantly inhibited the increase	xanthine oxidase inhibitory activity at various concentrations (XOD (xanthine oxidase); FIG. 10A to 10R): concentration-dependent

Further compounds by falling IC50 (XOD (xanthine oxidase)), results first:

inhibition at 1000 µM (XOD (xanthine oxidase)) [%]	IC50 (XOD (xanthine oxidase)) [µM]	SMILES	hepatic uric acid level (hyperuricemic mice [2])	serum uric acid level (hyperuricemic mice [6])	further results
–	5650 ± 100	CCOC(=O)c1cc(O)c2ccccc2n1 [Compound 7, Ethyl 4-hydroxyquinoline-2-carboxylate]	–	–	–
–	1990 ± 260	O=C(O)c1cc(O)c2ccccc2n1 [KA, Kynurenic acid]	reduce hepatic UA levels in a concentration-dependent manner; also recorded: reduce hepatic uric acid levels in a concentration-dependent manner; also recorded: gradient decline	significantly reduce	hepatic XOD enzyme activity (XOD [1]): effectively inhibit; also recorded: decreased significantly; serum XOD enzyme activity (XOD [3]): reduce serum XOD enzyme activity in hyperuricemic mice to varying degrees; serum creatinine (CRE) level (hyperuricemic mice [4]): significantly reduces; also recorded: significantly decrease; BUN level compared with the positive control group (hyperuricemic mice [5]; KA-M and KA-H (35 and 70 mM/kg/day) vs allopurinol 35 mM/kg/day (p<0.01)): reduce BUN levels in the mice more significantly; blood urea nitrogen (BUN) level (hyperuricemic mice [5]; [9]): significantly reduces; also recorded: significantly decrease; serum uric acid level, comparison among KA doses (hyperuricemic mice [6]; KA-H, 70 mM/kg/day, day 21): most pronounced; serum ADA enzyme activity, comparison among KA doses ([7]; KA-H, 70 mM/kg/day, day 21): the most significant; serum ADA enzyme activity [7, 9]: effectively reduce; also recorded: significantly reduced; growth status and body weight [8]: no significant effect; also recorded: no significant impact; also recorded: did not affect
> 50	500 ± 130	O=C(O)c1cnc2ccc(O)cc2c1 [Compound 5, 6-Hydroxyquinoline-3-carboxylic acid]	–	–	–
